Drawing on publication PMC11821258 (Molecules, 2025), this text covers IC50, SI and induction of apoptosis for six molecules.

For assay [1], the system named is human biphenotypic B myelomonocytic leukemia MV4-11. Nature of the assay: Antiproliferative activity, MTT assay, 72 h. In kind it is cell-based. The conditions noted are these: for IC50: Homo sapiens, MV4-11, 72 h; for SI: IC50 MCF-10A / IC50 MV4-11. How it is done: (§1) The tested compounds were dissolved in DMSO (dimethyl sulfoxide) to a concentration of 10 mg/mL and then were diluted in the culture medium to reach the final concentrations. The cells were plated in 384-well plates at a density of 1 × 10^3 or 2 × 10^3 (MCF-10A) cells per well (Greiner Bio One, Kremsmünster, Austria) and in 96-well plates (MV4-11 cell; Sarstedt, Nümbrecht, Germany) at a density of 5 × 10^3 cells per well. After 24 h of incubation, the tested compounds were added at concentrations in the range of 100–0.03 µg/mL and, after the next 72 h of exposure to tested agents, the cytotoxic effect of all agents was examined using the MTT (MV4-11) or SRB assay, described previously. The values of IC50 (inhibitory concentration 50%) were calculated separately for each experiment (repeated 3–5 times) using the Prolab-3 system which is based on Cheburator 0.4 software. Doxorubicin was applied as a reference drug. The IC50 values in µg/mL were calculated to µM.
This assay was used against MV4-11 leukemia cells and was performed after 72 h of exposure of the tested agents to the cells. For each well, 20 µL of the MTT [3-(4,5-dimethylthiazol-2-yl)-2,5-diphenyl tetrazolium bromide] solution (5 mg/mL, Merck, Darmstadt, Germany) was added. After the incubation time (4 h at 37 °C), 80 µL of the lysing buffer was added to each well (mixture of 225 mL of DMF (dimethylformamide) Avantor, Poland; 67.5 g of SDS, Merck, Darmstadt, Germany; and 275 mL of distilled water). After the next 24 h, the absorbance of the samples was measured at a 570 nm wavelength on a Synergy H4 photometer (BioTek Instruments, Winooski, VT, USA). The absorbance of wells without the cells was the background.
(Tetrazolium assays rely on reduction of a dye to a coloured formazan, in cell work by metabolically active cells.)

Assay [2] has as its system human normal epithelial cells from the mammary gland (MCF-10A). Kind of assay: Cytotoxicity on non-tumorigenic cells, SRB assay, 72 h. In kind it is cell-based. Here is the method:
as §1
(§2) The cytotoxicity assay was performed after the cultured cells were exposed to the tested agents for 72 h using the authomatic Washer dyspenser EL406, BioTek. At the first step, the washer dispenser collected 40 µL of cultured medium from each wells, and then the cells were fixed by gently layering 20 µL per well of cold 25% trichloroacetic acid to each well. The incubation time was 40 min and then the plates were washed with tap water. The cells were stained with 20 µL per well of 0.1% sulforhodamine B (SRB, Merck, Darmstadt, Germany) for 30 min. Unbound sulforhodamine B was removed by washing it with 1% acetic acid. The protein-bound dye was extracted in 30 min using 70 µL per well of 10 mM unbuffered Tris base (Merck, Darmstadt, Germany). The absorbance (at 540 nm) was measured on a Synergy H4 photometer (BioTek Instruments, Winooski, VT, USA). The absorbance of the wells without the cells was the background.
A general note: Sulforhodamine B stains cellular protein and so reports cell mass.

For assay [3], the system named is human prostate adenocarcinoma PC-3. Nature of the assay: Antiproliferative activity, SRB assay, 72 h. In kind it is cell-based. The conditions noted are these: for IC50: Homo sapiens; for SI: IC50 MCF-10A / IC50 PC-3. Here is the method:
as §1, §2

For assay [4], the system named is human melanoma Hs294T cells. Kind of assay: Antiproliferative activity, SRB assay, 72 h. In kind it is cell-based. The settings on record: for IC50: 72 h; for SI: IC50 MCF-10A / IC50 Hs249T (so in the source). How it is done: as §1, §2
Assay [5] relates to human colon cancer HCT116 cells. Kind of assay: Antiproliferative activity, SRB assay, 72 h. It is filed as cell-based. The conditions noted are these: for SI: IC50 MCF-10A / IC50 HCT116. How it is done:
as §1, §2

Assay [6] concerns human lung carcinoma A549. Nature of the assay: Antiproliferative activity, SRB assay, 72 h. In kind it is cell-based. The settings on record: for IC50: A549, 72 h; for SI: IC50 MCF-10A / IC50 A549. Here is the method:
as §1, §2

The test system of assay [7] is human breast cancer MCF-7. Nature of the assay: Antiproliferative activity, SRB assay, 72 h. The conditions noted are these: for IC50: Homo sapiens; for SI: IC50 MCF-10A / IC50 MCF-7. In kind it is cell-based. How it is done: as §1, §2
Assay [8] relates to human pancreas cancer MiaPaca-2 cells. Nature of the assay: Antiproliferative activity, SRB assay, 72 h. It is filed as cell-based. The conditions noted are these: for SI: IC50 MCF-10A / IC50 MiaPaca-1 (so in the source). Here is the method: as §1, §2
For a further assay, the system named is MV4-11 cells. Kind of assay: Apoptosis determination via Annexin V and PI staining. In kind it is cell-based, human. How it is done: Camptothecin at a concentration of 0.05 uM was used as a positive control. After incubation, the cells were collected and counted with a hemocytometer, and 1×10^5 cells were washed twice with PBS. APC-Annexin V (Becton Dickinson, Pharmingen, Franklin Lakes, NJ, USA) was dissolved to the concentration of […] in a binding buffer (10 mM HEPES/NaOH, pH 7.4; 150 mM NaCl; 5 mM KCl; 1 mM MgCl2; and 1.8 mM CaCl2) (HIIET, Wrocław, Poland), and the cells were suspended in 200 µL of this solution. After 15 min of the incubation in the dark at room temperature, 20 µL of propidium iodide (PI) solution (0.02 mg/mL) was added. Data acquisition was performed by conducting flow cytometry using a BD LSRFortessa cytometer (BD Bioscience, San Jose, CA, USA). The compounds were tested at least three times independently. Results were analyzed using Flowing software 2.5.1 (Turku, Finland). […] Double-negative cells were live cells, PI+/Annexin V+ were late apoptotic cells, PI-/Annexin V+ were early apoptotic cells, and PI+/Annexin V- were necrotic cells.

The mark [9] stands for this setting: Homo sapiens, MCF-10A normal cells, SRB, read-out: IC50.
Where [10] appears, read: PC-3, 72 h, SRB, read-out: IC50.
The mark [11] stands for this setting: Homo sapiens, Hs 294T, Hs249T (so in the source), SRB, read-out: IC50.
[12] abbreviates: Homo sapiens, HCT-116, HCT116, 72 h, SRB, read-out: IC50.
[13] abbreviates: Homo sapiens, SRB, read-out: IC50.
Where [14] appears, read: MCF7, MCF-7, 72 h, SRB, read-out: IC50.
Where [15] appears, read: Homo sapiens, MIA PaCa-2, MiaPaca-1 (so in the source), 72 h, SRB, read-out: IC50.
Setting [16] is: MV4-11, 72 h, higher concentrations.

SMILES strings stand for the structures. Where two headings read alike, the source gives them in different places.

One may read the IC50 as the midpoint of a concentration-inhibition curve. `C#CC(=O)OC[C@]12CC[C@@H](C(=C)C)C1C1CCC3[C@@]4(C)CC[C@H](OC(=O)CC(C)(C)CC(=O)O)C(C)(C)C4CC[C@@]3(C)[C@]1(C)CC2` (stereo partly drawn) [Compound 4a]: the half-inhibitory concentration (IC50) in [1] (MTT, read-out: IC50) stood at 0.38 ± 0.14 µM; in [2] (setting [9]), 33.1 ± 5.18 µM; in assay [3] (setting [10]), 0.86 ± 0.25 µM; in assay [4] (setting [11]), 0.49 ± 0.23 µM; in assay [5] (setting [12]), 7.85 ± 2.35 µM; in assay [6] (setting [13]), 7.54 ± 1.25 µM. Also, the half-inhibitory concentration (IC50) in assay [7] (setting [14]) was 16.5 ± 1.88 µM; in assay [8] (setting [15]), 7.54 ± 0.47 µM. For the same molecule, the SI in assay [4] was determined as 67; in assay [5], 4.22; in assay [6] it was 4.40; in assay [7] it was 2.01; in [8], 4.40. Also, the induction of apoptosis result in the assay on MV4-11 cells (MV4-11, 24 h) was “induced apoptosis”; with MV4-11 cells (setting [16]), “induction of apoptosis was observed”.
As for `C=C(C)[C@@H]1CC[C@]2(COC(=O)CC)CC[C@]3(C)C(CCC4[C@@]5(C)CC[C@H](OC(=O)CC(C)(C)CC(=O)O)C(C)(C)C5CC[C@]43C)C12` (stereo partly drawn) [Compound 4d], the IC50 in [1] (MTT, read-out: IC50) is 5.15 ± 0.47 µM; in assay [2] (setting [9]), 60.4 ± 15.9 µM; in [3] (setting [10]), 21.7 ± 4.52 µM; in assay [4] (setting [11]) it was 18.7 ± 9.67 µM; in assay [5] (setting [12]) it was 16.9 ± 5.61 µM; in assay [6] (setting [13]), 6.24 ± 1.25 µM. Also, the IC50 in assay [7] (setting [14]) amounted to 20.6 ± 5.77 µM; in assay [8] (setting [15]), 34.2 ± 2.96 µM. Further, the SI in assay [1] was 11.73; in [3], 2.78; in assay [4], 3.23; in assay [5], 3.58; in [6], 9.68; in assay [7], 2.93. For the same molecule, the SI in [8] came to 1.77.
Regarding `C=C(C)[C@@H]1CC[C@]2(COC(C)=O)CC[C@]3(C)[C@H](CC[C@@H]4[C@@]5(C)CC[C@H](O)C(C)(C)[C@@H]5CC[C@]43C)[C@@H]12` [A, 28-O-acetylbetulin, reference compound], the IC50 worked out at 41.1 ± 8.46 µM in [1] (MTT, read-out: IC50); 124 ± 33 µM in assay [2] (setting [9]); 80.7 ± 13.4 µM in assay [3] (setting [10]); 128 ± 14.2 µM in [4] (setting [11]); 40.6 ± 13.6 µM in [5] (setting [12]); 27.8 ± 10.5 µM in assay [6] (setting [13]). The IC50 in [7] (setting [14]) is 72.4 ± 6.6 µM; in [8] (setting [15]), 127 ± 16.3 µM. Also, the SI in [1] was found to be 3.02; in assay [3], 1.54; in [4] it was 0.97; in assay [5], 3.05; in [6] it was 4.45; in assay [7] it was 1.71. Besides, in assay [8], the SI came out at 0.98.
Consider `C=C(C)[C@@H]1CC[C@]2(CO)CC[C@]3(C)C(CCC4[C@@]5(C)CC[C@H](OC(=O)CCC(=O)O)C(C)(C)C5CC[C@]43C)C12` (stereo partly drawn) [Compound 6], for which the concentration for half-maximal inhibition (IC50) in assay [1] (MTT, read-out: IC50) was found to be 6.45 ± 2.03 µM; in [2] (setting [9]), 31.9 ± 4.24 µM; in [3] (setting [10]), 26.2 ± 5.71 µM; in assay [4] (setting [11]), 32.1 ± 1.66 µM; in [5] (setting [12]) it was 20.3 ± 5.53 µM; in [6] (setting [13]), 8.66 ± 1.1 µM. Further, the 50% inhibitory concentration (IC50) in assay [7] (setting [14]) was found to be 19 ± 6.45 µM; in assay [8] (setting [15]), 38.1 ± 3.87 µM. Further, the SI in assay [1] is on record as 4.94; in assay [3], 1.22; in [4], 0.99; in assay [5], 1.57; in assay [6], 3.68; in [7], 1.68. Further, the SI in assay [8] was 0.84. In the assay on MV4-11 cells (setting [16]), the induction of apoptosis result is “induction of apoptosis was observed”.
In the case of `C=C(C)[C@@H]1CC[C@]2(COC(=O)C#Cc3ccccc3)CC[C@]3(C)C(CCC4[C@@]5(C)CC[C@H](OC(=O)CC(C)(C)CC(=O)O)C(C)(C)C5CC[C@]43C)C12` (stereo partly drawn) [Compound 4f], the IC50 was 46.6 ± 11.8 µM in assay [1]; “Neg” in assay [2] (MCF-10A normal cells, SRB); 95.8 ± 27.1 µM in assay [3] (72 h); “Neg” in assay [4] (Hs249T (so in the source), SRB); “does not show activity and Neg” in assay [5] (HCT116, 72 h, SRB); “does not show activity and Neg” in assay [6] (SRB). The half-inhibitory concentration (IC50) was 131 ± 8.83 µM in assay [7] (MCF7, 72 h) and “Neg” in assay [8] (MiaPaca-1 (so in the source), 72 h, SRB).
With `C=C(C)[C@@H]1CC[C@]2(COC(C)=O)CC[C@]3(C)C(CCC4[C@@]5(C)CC[C@H](OC(=O)CCC(=O)O)C(C)(C)C5CC[C@]43C)C12` (stereo partly drawn) [Compound 3], the IC50 in assay [1] was determined as 3.93 ± 1.54 µM; in assay [2] (Homo sapiens, MCF-10A), 33.5 ± 1.88 µM; in assay [3] (72 h), 22.4 ± 2.56 µM; in assay [4] (Homo sapiens, Hs 294T), 21.9 ± 4.27 µM; in assay [5] (Homo sapiens, HCT-116, 72 h), 13.2 ± 1.02 µM; in [6] (Homo sapiens), 5.13 ± 0.85 µM. Also, the IC50 in [7] (MCF7, 72 h) turned out to be 17.3 ± 6.33 µM; in assay [8] (Homo sapiens, MIA PaCa-2, 72 h) it was 34.5 ± 5.47 µM. Further, the SI turned out to be 8.82 in [1]; 1.50 in assay [3]; 1.53 in [4]; 2.55 in assay [5]; 6.53 in [6]; 1.94 in [7]. Also, the SI in [8] stood at 0.97.
